These results are taken from patent US20250041227A1, “TABLET FORMULATIONS OF RBP4 INHIBITORS AND METHODS OF USE” (BELITE BIO, INC, priority 2021, published 2025).

For the series, the system named is male cynomolgus monkeys. As to the kind of experiment: In-life clinical observations (tolerability). The series is classed as in vivo. The settings on record: single PO 5 mg/animal per phase, 6 phases. From the text: The test system and study design were as follows. A total of 4 male non-naïve cynomolgus monkeys were assigned to the study (age: >2 years old and body weight: 2.5-4 kg). Each animal received a single dose of capsule or tablet at the start of each phase and there were 6 phases in total. The same animals, Animal Nos. C1001, C1002, C1003 and C1004, were used for each phase with a minimum 5-day washout period between dosing for each phase, except for Animal No. C1002, Animal Tattoo No. C1708339, which was replaced by another non-naïve cynomolgus monkey, Animal Tattoo No. C1703319, due to dosing failure that happened in Phase 3. As a result, Animal Tattoo No. C1708339 was used in Phase 1 and 2, Animal Tattoo No. C1703319 was used in Phases 3 to 6. All animals were fasted overnight prior to dosing, food was returned at 4 hours post-dose.
Animals were physically examined prior to study initiation to confirm their health. Clinical observations were performed twice daily (approximately 9:30 a.m. and 4:00 p.m.). Cage-side observations for general health and appearance were also performed. On dosing day, animals were also observed before and after each sample collection time point. General condition, behavior, activity, excretion, respiration or other unusual observations noted throughout the study were recorded.

As to `CC(=O)N1CCc2c(C(=O)N3CCC(c4ccc(F)c(F)c4C(F)(F)F)CC3)n[nH]c2C1` [Compound 1, 1-(3-(4-(3,4-difluoro-2-(trifluoromethyl)phenyl)piperidine-1-carbonyl)-1,4,5,7-tetrahydro-6H-pyrazolo[3,4-c]pyridin-6-yl)ethan-1-one], the “adverse effects during the in-life phase” value is reported as “No adverse effects were observed”.
